pIC50: −log10 of the molar value.

By pIC50 is commonly meant the negative decadic logarithm of the IC50, by convention in mol/L.

A short description of this assay: Inhibition of lipoprotein(a) assembly from Apo(a) and LDL particle in human HepG2 and HEK293 combined conditioned media incubated for 2 hrs by sandwich ELISA. On the technique in general: An ELISA detects its analyte on a solid surface through an enzyme-linked reagent.
For `O=C(O)[C@@H](Cc1cccc(S(=O)(=O)c2cccc(C[C@H](C(=O)O)[C@H]3CCNC3)c2)c1)[C@H]1CCNC1`, the pIC50 was 9.63.

In the case of `O=C(O)[C@@H](Cc1cccc([S+]([O-])c2cccc(C[C@H](C(=O)O)[C@H]3CCNC3)c2)c1)[C@H]1CCNC1`, the pIC50 was 9.40.

Consider `COc1cc(F)cc(CN(Cc2cccc(C[C@H](C(=O)O)[C@H]3CCNC3)c2)Cc2cccc(C[C@H](C(=O)O)[C@H]3CCNC3)c2)c1`, for which the pIC50 was 9.77.

In the case of `O=C(O)[C@@H](Cc1cccc(Sc2cccc(C[C@H](C(=O)O)[C@H]3CCNC3)c2)c1)[C@H]1CCNC1`, the pIC50 is 9.44.

In the case of `O=C(O)[C@@H](Cc1cccc(OCCOc2cccc(C[C@H](C(=O)O)[C@H]3CCNC3)c2)c1)[C@H]1CCNC1`, the negative logarithm of the IC50 (pIC50) is 9.54.

With `O=C(O)[C@@H](Cc1cccc(Nc2cccc(C[C@H](C(=O)O)[C@H]3CCNC3)c2)c1)[C@H]1CCNC1`, the pIC50 is 9.46.

`CC(Cc1cccc(CN(Cc2cccc(CC(C)(C(=O)O)[C@H]3CCNC3)c2)Cc2cccc(CC(C)(C(=O)O)[C@H]3CCNC3)c2)c1)(C(=O)O)[C@H]1CCNC1` (some centres not stated): the pIC50 is 9.97.

Turning to `O=C(O)[C@@H](Cc1cccc(Oc2cccc(C[C@H](C(=O)O)[C@H]3CCNC3)c2)c1)[C@H]1CCNC1`, the negative-log IC50 (pIC50) is 9.43.

As for `O=C(O)[C@@H](Cc1cccc(NS(=O)(=O)Nc2cccc(C[C@H](C(=O)O)[C@H]3CCNC3)c2)c1)[C@H]1CCNC1`, the pIC50 was 9.25.

Turning to `O=C(O)[C@@H](Cc1cccc(COc2cccc(C[C@H](C(=O)O)[C@H]3CCNC3)c2)c1)[C@H]1CCNC1`, the negative logarithm of the IC50 (pIC50) was 9.44.

As for `O=C(O)[C@@H](Cc1cccc(CN(Cc2cccc(C[C@H](C(=O)O)[C@H]3CCNC3)c2)Cc2cccc(C[C@H](C(=O)O)[C@H]3CCNC3)c2)c1)[C@H]1CCNC1`, the pIC50 is 10.02.

Turning to `O=C(O)[C@@H](Cc1cccc(CNCc2cccc(C[C@H](C(=O)O)[C@H]3CCNC3)c2)c1)[C@H]1CCNC1`, the negative logarithm of the IC50 (pIC50) is 9.03.

The values are drawn from ChEMBL document CHEMBL4706720, “Pyrrolidine Compounds as Potential Lipid-Lowering Therapeutic in Cardiovascular Disease” (ACS Med Chem Lett, 2021).
